Results from patent US10363251B2, “(+)-morphinans as antagonists of toll-like receptor 9 and therapeutic uses thereof” (Mallinckrodt LLC, priority 2009, dated 2019).

Molecular target: T1, TLR9 (Homo sapiens, UniProt Q9NR96)
T1 construct: expressed in transfected cells; host or cells: HEK293
T1 sequence (Q9NR96 26-1032): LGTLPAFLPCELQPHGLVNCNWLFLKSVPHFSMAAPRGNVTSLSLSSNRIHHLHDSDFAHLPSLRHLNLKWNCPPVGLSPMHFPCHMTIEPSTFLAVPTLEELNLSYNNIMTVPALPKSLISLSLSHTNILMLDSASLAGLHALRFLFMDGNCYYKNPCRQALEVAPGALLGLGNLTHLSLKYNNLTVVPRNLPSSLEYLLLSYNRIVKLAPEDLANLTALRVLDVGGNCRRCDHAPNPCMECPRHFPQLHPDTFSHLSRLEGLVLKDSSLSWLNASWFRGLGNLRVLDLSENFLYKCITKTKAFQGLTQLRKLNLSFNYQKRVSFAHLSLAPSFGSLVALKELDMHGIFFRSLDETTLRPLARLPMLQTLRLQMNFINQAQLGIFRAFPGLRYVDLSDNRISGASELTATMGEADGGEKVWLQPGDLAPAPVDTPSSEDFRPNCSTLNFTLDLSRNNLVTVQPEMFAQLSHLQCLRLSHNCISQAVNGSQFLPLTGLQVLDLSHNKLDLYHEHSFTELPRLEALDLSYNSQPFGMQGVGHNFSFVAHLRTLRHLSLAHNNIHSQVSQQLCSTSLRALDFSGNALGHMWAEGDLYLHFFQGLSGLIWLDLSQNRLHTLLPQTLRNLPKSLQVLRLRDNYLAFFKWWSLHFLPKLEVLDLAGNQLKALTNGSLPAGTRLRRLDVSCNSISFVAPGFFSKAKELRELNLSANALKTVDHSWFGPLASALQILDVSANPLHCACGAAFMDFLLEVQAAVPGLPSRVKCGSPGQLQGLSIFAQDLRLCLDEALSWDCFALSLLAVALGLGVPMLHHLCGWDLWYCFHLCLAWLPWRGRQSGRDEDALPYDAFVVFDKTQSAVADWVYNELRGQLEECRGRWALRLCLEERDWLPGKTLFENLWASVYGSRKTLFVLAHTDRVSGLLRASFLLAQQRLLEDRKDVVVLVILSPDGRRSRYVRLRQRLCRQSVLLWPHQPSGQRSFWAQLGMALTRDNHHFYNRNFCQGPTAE
Test: TLR9 screening of (+)-morphinan library, SEAP reporter in HEK293 cells expressing TLR9
Format: cell-based
Details: activator ODN2006; for OD 650 nm (mean ± sd): control (no activator) 0.14, activator 1.42 OD; for inhibition at 0.1 µM: HEK293, read-out: % Inhibition (mean), 100 nM; for inhibition at 10 µM: HEK293, read-out: % Inhibition (mean), 10 μM
Experimental: The secreted alkaline phosphatase reporter is under the control of a promoter inducible by the transcription factor NF-κB. A library of more than 100 (+)-morphinan compounds was screened for TLR9 antagonist activity by assessing NF-κB activation in the HEK293 cells expressing TLR9. This reporter gene allows the monitoring of signaling through the TLR, based on the activation of NF-κB.
In a 96-well plate (200 μL total volume) containing 50,000 cells/well, 20 μL of each sample compound was added to wells, in triplicate, followed by a 30 minute incubation at 37° C. and 5% CO2. After the 30 minutes of incubation, 20 μL of the activator ODN2006 was added to each well. The media added to the wells was designed for the detection of NF-κB induced SEAP expression. After a 16-20 hr incubation period, the OD at 650 nm was read on a Beckman Coulter AD 340C Absorbance Detector. All compounds were tested at concentrations of 10 μM and 100 nM.

Row | SMILES | % Inhibition (mean) (100 nM, 0.1 µM) [%] | OD 650 nm (mean ± sd) (100 nM) [OD] | % Inhibition (mean) (10 μM) [%] | OD 650 nm (mean ± sd) (10 μM) [OD] | inhibition at 0.1 µM [%] | inhibition at 10 µM [%]
1 | COc1ccc2c3c1O[C@@H]1C(O)CC[C@]4(O)[C@H](C2)N(CC2CC2)CC[C@@]314 (single isomer, unassigned) [II-53a] | 14 | 1.22 ± 0.05 | 7 | 1.32 ± 0.13 |  | 
2 | COc1ccc2c3c1O[C@@H]1C(O)CC[C@]4(O)[C@H](C2)N(CC2CC2)CC[C@@]314 (single isomer, unassigned) [II-53b] | 1 | 1.41 ± 0.09 | 29 | 1.00 ± 0.03 |  | 
3 | C=CCN1CC[C@@]23c4c5ccc(OC)c4OC2C(OC(C)=O)CC[C@@H]3C1C5 (single isomer, unassigned) [II-94a] |  | 1.13 ± 0.04 | 18 | 1.16 ± 0.08 | 20 | 
4 | C=CCN1CC[C@@]23c4c5ccc(OC)c4OC2C(OC(C)=O)CC[C@@H]3C1C5 (single isomer, unassigned) [II-94b] | 17 | 1.17 ± 0.03 | 8 | 1.30 ± 0.05 |  | 
5 | C=CCN1CC[C@@]23c4c5ccc(OC)c4O[C@@H]2[C@H](O)CC[C@]3(O)[C@@H]1C5 (stereo in doubt) [II-48] |  |  |  |  |  | 13
6 | COc1cc(Br)c2c(c1O)[C@@]13CCNC(C2)C1CCC(=O)C3 (some centres unmarked) [Compound I-1] |  | 1.18 ± 0.10 |  | 0.21 ± 0.01 | 17 | 85
7 | COc1cc(Br)c2c(c1O)[C@@]13CCN(CC4CC4)C(C2)C1CCC(=O)C3 (some centres unmarked) [Compound I-2] |  | 1.10 ± 0.06 |  | 0.14 ± 0.02 | 22 | 90
8 | C=CCN1CC[C@@]23CC(=O)CCC2C1Cc1c(-c2ccoc2)cc(OC)c(O)c13 (some centres unmarked) [Compound I-3] |  | 1.12 ± 0.01 |  | 0.11 ± 0.00 | 21 | 92
9 | COC(=O)CCc1cc(OC)c(O)c2c1CC1C3CCC(=O)C[C@@]23CCN1CC1CC1 (some centres unmarked) [Compound I-4] |  | 1.17 ± 0.06 |  | 0.46 ± 0.05 | 18 | 68
10 | COc1ccc2c(c1O)[C@@]13CCN(CC4CC4)C(C2)C1CCC(=O)C3 (some centres unmarked) [Compound I-6] |  | 1.29 ± 0.07 |  | 0.12 ± 0.02 | 9 | 91
11 | C=CCN1CC[C@@]23CC(=O)CCC2C1Cc1ccc(OC)c(O)c13 (some centres unmarked) [Compound I-7] |  | 1.14 ± 0.03 |  | 0.16 ± 0.01 | 20 | 89
12 | COc1cc(Br)c2c(c1O)[C@@]13CCN(CC4CCC4)C(C2)C1CCC(=O)C3 (some centres unmarked) [Compound I-8] |  | 1.13 ± 0.07 |  | 0.11 ± 0.01 | 20 | 92
13 | COc1ccc2c(c1O)[C@@]13CCN(C)[C@@H](C2)[C@@]1(O)CC(OC)C(=O)C3 (some centres unmarked) [Compound I-9] |  | 1.50 ± 0.10 |  | 1.03 ± 0.01 | -6 | 28
14 | COc1ccc2c(c1O)[C@@]13CCN(C)[C@@H](C2)[C@H]1CC(OC)C(O)C3 (some centres unmarked) [Compound I-10] |  | 1.32 ± 0.04 |  | 1.04 ± 0.08 | 7 | 27
15 | CCOC(=O)N1CC[C@@]23CC(=O)CCC2C1Cc1c(Br)cc(OC)c(O)c13 (some centres unmarked) [Compound I-11] |  | 1.49 ± 0.04 |  | 1.98 ± 0.09 | -5 | -39
16 | COc1cc(Br)c2c(c1OC(C)=O)[C@@]13CCN(CC4CC4)C(C2)C1CCC(=O)C3 (some centres unmarked) [Compound I-12] |  | 1.19 ± 0.07 |  | 0.13 ± 0.01 | 16 | 91
17 | COc1cc(-c2ccoc2)c2c(c1O)[C@@]13CCN(CC4CC4)C(C2)C1CCC(=O)C3 (some centres unmarked) [Compound I-13] |  | 1.34 ± 0.12 |  | 0.13 ± 0.01 | 6 | 91
18 | C=CCN1CC[C@@]23CC(=O)C(OC)C[C@@H]2[C@@H]1Cc1ccc(OC)c(O)c13 (some centres unmarked) [Compound I-16] |  | 1.50 ± 0.01 |  | 0.91 ± 0.04 | -5 | 36
19 | COc1ccc2c(c1O)[C@@]13CCN(CC4CC4)[C@@H](C2)[C@@]1(O)CC(OC)C(=O)C3 (some centres unmarked) [Compound I-18] |  | 1.40 ± 0.14 |  | 1.01 ± 0.06 | 1 | 29
20 | COc1ccc2c(c1O)[C@]13C=CCC[C@]1(O)[C@H](C2)N(C)CC3 [Compound I-22] |  | 0.93 ± 0.15 |  | 0.10 ± 0.01 | 34 | 93
21 | COc1ccc2c(c1O)[C@@]13CCN(C)[C@@H](C2)[C@@]1(O)CCC(=O)C3 [Compound I-25] |  | 1.08 ± 0.05 |  | 0.52 ± 0.07 | 24 | 63
22 | COc1ccc2c(c1OCc1ccccc1)[C@@]13CCN[C@@H](C2)[C@H]1CC(OC)C(=O)C3 (some centres unmarked) [Compound I-26] |  | 1.15 ± 0.03 |  | 0.19 ± 0.02 | 19 | 87
23 | C=C(C)c1cc(OC)c(O)c2c1CC1C3CCC(=O)C[C@@]23CCN1CC1CC1 (some centres unmarked) [Compound I-27] |  | 1.13 ± 0.04 |  | 0.10 ± 0.00 | 20 | 93
24 | COC1=C[C@@H]2[C@@H]3Cc4ccc(OC)c(O)c4[C@]2(CCN3C)CC1O (some centres unmarked) [Compound I-28] |  | 1.24 ± 0.02 |  | 0.12 ± 0.01 | 13 | 91
25 | COc1ccc2c(c1O)[C@@]13CCN(CC4CCC4)[C@@H](C2)C1CCC(=O)C3 (some centres unmarked) [Compound I-29] |  | 1.06 ± 0.03 |  | 0.11 ± 0.00 | 25 | 92
26 | COC1=C[C@]2(O)[C@@H]3Cc4ccc(OC)c(O)c4[C@]2(CCN3C)CC1=O [Compound I-30] |  | 1.25 ± 0.11 |  | 0.94 ± 0.05 | 12 | 33
27 | COc1cc(Br)c2c3c1O[C@@H]1C(=O)CCC4C(C2)NCC[C@]341 (some centres unmarked) [II-1] |  | 0.97 ± 0.04 |  | 0.19 ± −0.2 | 32 | 86
28 | C=CCN1CC[C@@]23c4c5c(-c6ccoc6)cc(OC)c4O[C@@H]2C(=O)CCC3C1C5 (some centres unmarked) [II-2] |  | 1.23 ± 0.05 |  | 0.12 ± 0.01 | 13 | 92
29 | COc1cc(C(C)C)c2c3c1O[C@@H]1C(=O)CCC4C(C2)N(CC2CC2)CC[C@]341 (some centres unmarked) [II-4] |  | 1.18 ± 0.06 |  | 0.11 ± 0.01 | 17 | 92
